# Source: ChEMBL document CHEMBL1201862, “PubChem BioAssay data set” (2004)
# Calls of active or inactive are those of the source. Rule as the data show it: actives have a measured IC50 and inactives only a lower limit.
# Target: Envelope glycoprotein gp160 (Human immunodeficiency virus 1, UniProt Q6QLK5)
# Assay: inhibitors of HIV fusion peptide binding, primary screen, biochemical, uHTS, fluorescence dequenching (AID 1986)
# Envelope glycoprotein gp160, sequence (Q6QLK5 whole entry, the tested form may be a part): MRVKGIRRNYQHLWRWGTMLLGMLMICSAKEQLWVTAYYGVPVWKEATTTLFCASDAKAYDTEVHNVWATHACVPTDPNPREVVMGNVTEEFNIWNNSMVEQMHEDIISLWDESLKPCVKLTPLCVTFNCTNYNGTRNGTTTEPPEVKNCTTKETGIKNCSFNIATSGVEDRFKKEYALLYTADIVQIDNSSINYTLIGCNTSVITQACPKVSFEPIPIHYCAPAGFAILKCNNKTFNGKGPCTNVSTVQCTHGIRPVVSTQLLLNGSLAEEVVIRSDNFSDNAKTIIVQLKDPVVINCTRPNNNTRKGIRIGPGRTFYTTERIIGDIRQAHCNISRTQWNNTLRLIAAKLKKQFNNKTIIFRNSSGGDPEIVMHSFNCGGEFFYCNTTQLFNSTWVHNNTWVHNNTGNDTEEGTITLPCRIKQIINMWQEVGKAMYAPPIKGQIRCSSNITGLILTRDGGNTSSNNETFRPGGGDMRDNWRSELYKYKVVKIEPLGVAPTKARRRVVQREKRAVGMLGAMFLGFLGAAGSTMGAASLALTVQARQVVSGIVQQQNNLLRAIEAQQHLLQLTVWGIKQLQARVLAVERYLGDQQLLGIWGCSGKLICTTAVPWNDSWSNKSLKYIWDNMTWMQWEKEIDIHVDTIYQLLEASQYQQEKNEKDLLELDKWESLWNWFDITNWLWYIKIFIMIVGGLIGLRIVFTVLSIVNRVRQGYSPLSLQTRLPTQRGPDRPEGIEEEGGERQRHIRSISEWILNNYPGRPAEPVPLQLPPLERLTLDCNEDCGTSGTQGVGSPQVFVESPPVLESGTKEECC
row,Compound,IC50
1,Cc1cccc(C)c1-n1cccc1/C=C1\SC(=S)N(c2cccc(C(=O)O)c2)C1=O,22.4 µM (active)
2,CCCOc1ccc(C(=O)NNC(=S)NC(=O)c2cc(-c3ccccc3)nc3ccccc23)cc1,30.9 µM (active)
3,CCC(C)(C)C1CCc2c(sc(NC(=O)c3ccccc3C(=O)O)c2C#N)C1 (stereo not drawn),12.9 µM (active)
